Measured values published in patent US20100278907A1, “Immunogenic Compositions Containing Ceramide and Methods of Use Thereof” (Medical College of Georgia Research Institute, Inc, priority 2008, published 2010).
Like-named read-outs stand apart in the source and are kept apart here.

Experiments:
[1] = cited from earlier work
Aβ biogenesis = details: cited from earlier work
[2] = LPS model; cited from earlier work
[3] = acid-induced acute lung injury; cited from earlier work
[4] = tested on: ceramide levels in F11 cells; assay: Immunocytochemistry for ceramide in treated F11 cells; assay type: cell-based
Method: (§1) For immunocytochemistry, F11 cells were grown on coverslips. Cells were incubated with myriocin for 3 days to inhibit de novo ceramide biosynthesis and reduce ceramide levels. To determine whether the antibody would cross-react with glycosphingolipids in the membrane, cells were incubated for 4 days with […] N-butyl-deoxynojirimycin (NB-dNJ), a glucosylceramide (GlcCer) synthase inhibitor known to inhibit glycosphingolipid biosynthesis. Control and myriocin- or NB-dNJ-treated cells were fixed with 4% p-formaldehyde in PBS for 20 min at room temperature. To release endogenous ceramide from sphingomyelin, fixed cells were incubated for 1 hour at 37° C. with 0.3 units (1 U/ml) of Staphylococcus aureus sphingomyelinase. Immunocytochemistry for ceramide was performed without the use of detergent for permeabilization. […] Confocal fluorescence microscopy was performed using a Zeiss LSM510 confocal laser scanning microscope equipped with a two photon argon laser at 488 nm (Cy2), 543 inn (Cy3), or 633 nm (Alexa Fluor: 647). […] Cells were washed with PBS, and stained cells were analyzed by flow cytometry, measuring the fluorescence emission at 530 nm. […]

[5] = tested on: TNF-α effect on endothelium-dependent vasorelaxation; details: cited from earlier work
[6] = repeated lung lavage; given together with surfactant; cited from earlier work
[7] = tested on: ceramide levels in F11 cells; assay: Flow cytometry of F11 cells stained with anti-ceramide rabbit IgG; assay type: cell-based; details: F11 cells incubated with myriocin, stained with rabbit IgG fraction; FIG. 2
Method: as §1

[8] = tested on: ceramide levels in F11 cells; assay: Ceramide levels by high-performance thin-layer chromatography; assay type: cell-based; details: myriocin incubation of F11 cells for 3 days; HPTLC

SMILES: CCCCCCCCCCCCC/C=C/[C@@H](O)[C@H](CO)NC(C)=O [C2-ceramide, N-acetyl sphingosine]
- ischaemic preconditioning-like protection ([1]; cell-permeable C2-ceramide compared with TNF-α preconditioning): TNF-a protection is reproduced

SMILES: CCCCCCCCCCCCC/C=C/[C@@H](O)[C@H](CO)NC(=O)CCCCC [C6 ceramide, N-hexanoylsphingosine]
- Aβ generation (Aβ biogenesis; FB1 treated cells): restored
- biogenesis of Aβ (Aβ biogenesis; exogenous C6 ceramide): promoted

SMILES: S=C(S)OC1CC2CC1C1CCCC21 (stereo not shown) [D609, tricyclodecan-9-yl-xanthate]
- mortality [2]: attenuated
- pulmonary edema formation [2]: attenuated
- oxygenation [3]: improves
- pulmonary edema [3]: attenuates
- protection from ischaemia-induced cell death ([1]; administered before the ischaemic period): reproduces preconditioning protection

SMILES: CCCCCCCC/C=C\CCCCCCCC(=O)NCCO [N-oleoylethanolamine]
- effect on preconditioning-like protection provided by TNF-a or C2-ceramide ([1]; ceramidase inhibitor): hinders
- effect on protection induced by ischaemic preconditioning ([1]; ceramidase inhibitor): does not hinder

SMILES: CCCCN1C[C@H](O)[C@@H](O)[C@H](O)[C@H]1CO [NB-dNJ, N-butyl-deoxynojirimycin]
- intensity of the ceramide immunostaining signal ([4]; F11 cells incubated for 4 days with 250 mM NB-dNJ): not changed significantly

SMILES: CNCCCN1c2ccccc2CCc2ccccc21 [desipramine]
- effect on TNF-α inhibition of endothelium-dependent vasorelaxation [5]: neutralizes

SMILES: CN(C)CCCN1c2ccccc2CCc2ccccc21 [imipramine]
- pulmonary inflammation [2]: attenuated
- duration of the beneficial effect [6]: 24 h
- edema formation [6]: ameliorates
- oxygenation [6]: advances

SMILES: CCCCCCC(=O)CCCCCC/C=C/C[C@@H](O)[C@H](O)[C@@](N)(CO)C(=O)O [myriocin]
- intensity of the ceramide immunostaining signal ([4]; F11 cells incubated with myriocin for 3 days, rabbit IgG and polyclonal IgM): reduced
- reduction of fluorescence intensity compared with control cells [7]: about 40%
- reduction of ceramide levels [8]: about 50%
